Reference: US20230137216A1, “Stabilization of Pharmaceutical Compositions Comprising Polysorbate” (LEK Pharmaceuticals d.d., priority 2020, published 2023)
“Also recorded” adds a separate entry of the source.

Legend:
[1] = Accelerated stability testing of PS20 (polysorbate content by mixed-mode chromatography with CAD)
Protocol: (§1) PS20 or PS80 obtained from different manufacturers (see Table 1) was dissolved in 20 mM aqueous buffer at pH 5.5 or 6.5 in a glass vial to a final concentration of 0.02% (w/v) polysorbate. The buffer salts used in the histidine buffers investigated were histidine chloride (HisCl) and various further histidine buffer salts (see below, all obtained from Sigma-Aldrich (now Merck KgaA)).
(§2) Degradation mechanisms of the polysorbates were explored using 20 mM imidazole chloride and 20 mM alanine chloride buffer salts. Also, HisCl buffer salt comprising solutions were prepared with the additional excipients of mannitol or trehalose (both Sigma-Aldrich) to determine the influence of sugars and their derivatives on polysorbate degradation. Finally, two different mAbs were used as the active agent that each contained 10 mg/mL mAb, 0.02% PS80 HX2 and 20 mM HisCl buffer salt at pH 6.5. The therapeutic protein solutions were provided by Lek d.d. (Mengeš, Slovenia). In all cases, the starting point samples were collected immediately and stored at −80° C. The vials were then placed into a 50° C. incubator for up to 2 months, with samples collected at 1 month and further samples in some cases at 2 months. All of these samples were stored at −80° C. for subsequent analysis.
(§3) The polysorbate contents were analysed and quantified using a method based on mixed-mode chromatography, as mixed anion exchange and reversed phase, combined with a charged aerosol detector (CAD). The external standard approach was used for quantification of the surfactants. Chromatographic analysis was carried out using the method of Hewitt et al. (Hewitt, D. et al. J. Chromatogr. A 1218, 2138-2145 (2011).
(§4) Analytes were separated using a Waters Oasis MAX column (30 μm particle size, 2.1 mm×20 mm), column temperature 30° C., flow rate 1 ml/min and a total run time of 10 min. The injection volume was 10 μL. Initial conditions were set at 90% solvent A (2% formic acid in purified water) and 10% solvent B (2% formic acid in isopropanol). Solvent B was increased to 20% in the first minute and held for 2.4 min. POE sorbitan esters were eluted using a step gradient of 20% to 100% B over 0.1 min, followed by an equilibration step of 10% B for 0.9 min.

[2] = Accelerated stability testing of PS80 (polysorbate content by mixed-mode chromatography with CAD)
Protocol: as §1, §2, §3, §4

[3] = as reported in prior work; cited from earlier work
[4] = Accelerated stability testing of PS80 HX2 (polysorbate content by mixed-mode chromatography with CAD); details: for degradation of PS80 HX2 in the presence of mAb1 / degradation of PS80 HX2 in the presence of mAb2: pH 6.5; for degradation of polysorbate 80 HX2: 0.02% w/v PS80 HX2, 20 mM histidine buffer salt, pH 6.5, 50° C.
Protocol: as §1, §2, §3, §4

[5] = 0.02% w/v PS20, 20 mM histidine chloride, pH 6.5, 50° C., 1 month
[6] = 0.02% w/v PS80, 20 mM histidine chloride, pH 6.5, 50° C., 1 month

O=C(O)CN(CCN(CC(=O)O)CC(=O)O)CC(=O)O [EDTA]
effect of added excipient on degradation of PS20 [1, 5]: did not slow down the degradation
effect of added excipient on degradation of PS80 [2, 6]: did not slow down the degradation

[Cl-].[Na+] [NaCl]
effect of added excipient on degradation of PS20 [1, 5]: did not slow down the degradation
effect of added excipient on degradation of PS80 [2, 6]: did not slow down the degradation

CC(=O)O.N[C@@H](Cc1c[nH]cn1)C(=O)O [histidine acetate]
oxidative degradation in buffer system of histidine and histidine acetate [3]: promoted oxidative degradation

N[C@@H](Cc1c[nH]cn1)C(=O)O.O=C(O)CC(O)C(=O)O [histidine malate]
degradation of PS80 HX2 in the presence of mAb1 [4]: no significant degradation
degradation of PS80 HX2 in the presence of mAb2 [4]: no significant degradation
degradation of PS20 (Merck) ([1]; pH 5.5): significantly less degradation
degradation of PS80 (Merck) ([2]; pH 5.5): significantly less degradation

N[C@@H](Cc1cnc[nH]1)C(=O)O.O=C(O)CCC(=O)C(=O)O [histidine α-ketoglutarate]
degradation of polysorbate 80 HX2 ([4]; 1 month): major to almost complete degradation

Cl.c1c[nH]cn1 [imidazole chloride]
degradation of PS80 HX2 ([4]; 0.02% w/v PS80 HX2, 20 mM buffer salt, AlaCl pH 5.0 or 6.0, ImiCl pH 5.0, 6.5 or 7.0, 50° C., 1 month): degraded almost entirely; also recorded: Polysorbate degradation was detected

OC[C@@H](O)[C@@H](O)[C@H](O)[C@H](O)CO [mannitol]
effect of added excipient on degradation of PS20 ([1]; pH 6.5): did not slow down the degradation
effect of added excipient on degradation of PS80 ([2]; pH 6.5): did not slow down the degradation

OC[C@H]1O[C@H](O[C@H]2O[C@H](CO)[C@@H](O)[C@H](O)[C@H]2O)[C@H](O)[C@@H](O)[C@@H]1O [trehalose]
effect of added excipient on degradation of PS20 ([1]; pH 6.5): did not slow down the degradation
effect of added excipient on degradation of PS80 ([2]; pH 6.5): did not slow down the degradation

alanine chloride
degradation of PS80 HX2 ([4]; pH 5): no degradation

histidine chloride [reference compound]
degradation of PS80 HX2 in the presence of mAb1 [4]: significant degradation
degradation of PS80 HX2 in the presence of mAb2 [4]: significant degradation
degradation of PS20 ([1]; pH 5.5): severe degradation
degradation of PS20 (Merck) ([1]; pH 5.5): showed degradation
degradation of PS80 ([2]; pH 5.5): severe degradation
degradation of PS80 (Merck) ([2]; pH 5.5): showed degradation

histidine glutarate
degradation of polysorbate 80 HX2 ([4]; 1 month): major to almost complete degradation

polyoxyethylene (20) sorbitan monooleate [PS80]
rate of degradation compared with PS20 samples from the same manufacturer ([2]; pH 5.5): generally degrading faster
